{"source": "patent US20260053812A1", "about": "“METHODS OF TREATING HYPERTENSION WITH A COMBINATION OF AN ALDOSTERONE SYNTHASE INHIBITOR AND A DIURETIC” (Mineralys Therapeutics, Inc., priority 2022, published 2026)", "experiment": "Estimated glomerular filtration rate (eGFR, CKD-EPI equation)", "format": "in vivo, human", "details": "for Estimated Glomerular Filtration Rate, mean observed / Estimated Glomerular Filtration Rate, mean change from baseline: Part 1"}
{"compound": "CC(=O)N[C@H]1CC[C@H](NC(=O)CN2CCN(c3nncc(-c4ccc(C)cc4)n3)CC2)CC1", "note": "[Compound A HBr]", "values": [{"measurement": "eGFR mean maximum decline relative to baseline", "setting": "100 mg QD, Part 1, Week 2", "value": 10.91, "unit": "mL/min/1.73 m^2"}, {"measurement": "Estimated Glomerular Filtration Rate, mean observed", "setting": "12.5 mg BID, BL", "value": 81.70, "unit": "mL/min/1.73 m^2"}, {"measurement": "Estimated Glomerular Filtration Rate, mean change from baseline", "setting": "12.5 mg BID, Week 1", "value": "−2.25", "unit": "mL/min/1.73 m^2"}, {"measurement": "Estimated Glomerular Filtration Rate, mean observed", "setting": "12.5 mg BID, Week 1", "value": 79.45, "unit": "mL/min/1.73 m^2"}, {"measurement": "Estimated Glomerular Filtration Rate, mean change from baseline", "setting": "12.5 mg BID, Week 2", "value": "−3.69", "unit": "mL/min/1.73 m^2"}, {"measurement": "Estimated Glomerular Filtration Rate, mean observed", "setting": "12.5 mg BID, Week 2", "value": 78.86, "unit": "mL/min/1.73 m^2"}, {"measurement": "Estimated Glomerular Filtration Rate, mean change from baseline", "setting": "12.5 mg BID, Week 3", "value": "−5.17", "unit": "mL/min/1.73 m^2"}, {"measurement": "Estimated Glomerular Filtration Rate, mean observed", "setting": "12.5 mg BID, Week 3", "value": 77.38, "unit": "mL/min/1.73 m^2"}, {"measurement": "Estimated Glomerular Filtration Rate, mean change from baseline", "setting": "12.5 mg BID, Week 4", "value": "−6.58", "unit": "mL/min/1.73 m^2"}, {"measurement": "Estimated Glomerular Filtration Rate, mean observed", "setting": "12.5 mg BID, Week 4", "value": 76.30, "unit": "mL/min/1.73 m^2"}, {"measurement": "Estimated Glomerular Filtration Rate, mean change from baseline", "setting": "12.5 mg BID, Week 5", "value": "−7.58", "unit": "mL/min/1.73 m^2"}, {"measurement": "Estimated Glomerular Filtration Rate, mean observed", "setting": "12.5 mg BID, Week 5", "value": 73.84, "unit": "mL/min/1.73 m^2"}, {"measurement": "Estimated Glomerular Filtration Rate, mean change from baseline", "setting": "12.5 mg BID, Week 6", "value": "−6.45", "unit": "mL/min/1.73 m^2"}, {"measurement": "Estimated Glomerular Filtration Rate, mean observed", "setting": "12.5 mg BID, Week 6", "value": 74.70, "unit": "mL/min/1.73 m^2"}, {"measurement": "Estimated Glomerular Filtration Rate, mean change from baseline", "setting": "12.5 mg BID, Week 7", "value": "−7.03", "unit": "mL/min/1.73 m^2"}, {"measurement": "Estimated Glomerular Filtration Rate, mean observed", "setting": "12.5 mg BID, Week 7", "value": 75.85, "unit": "mL/min/1.73 m^2"}, {"measurement": "Estimated Glomerular Filtration Rate, mean change from baseline", "setting": "12.5 mg BID, Week 8", "value": "−6.66", "unit": "mL/min/1.73 m^2"}, {"measurement": "Estimated Glomerular Filtration Rate, mean observed", "setting": "12.5 mg BID, Week 8", "value": 76.32, "unit": "mL/min/1.73 m^2"}, {"measurement": "Estimated Glomerular Filtration Rate, mean observed", "setting": "12.5 mg QD, BL", "value": 77.87, "unit": "mL/min/1.73 m^2"}, {"measurement": "Estimated Glomerular Filtration Rate, mean change from baseline", "setting": "12.5 mg QD, Week 1", "value": "−4.30", "unit": "mL/min/1.73 m^2"}, {"measurement": "Estimated Glomerular Filtration Rate, mean observed", "setting": "12.5 mg QD, Week 1", "value": 73.57, "unit": "mL/min/1.73 m^2"}, {"measurement": "Estimated Glomerular Filtration Rate, mean change from baseline", "setting": "12.5 mg QD, Week 2", "value": "−4.87", "unit": "mL/min/1.73 m^2"}, {"measurement": "Estimated Glomerular Filtration Rate, mean observed", "setting": "12.5 mg QD, Week 2", "value": 73.00, "unit": "mL/min/1.73 m^2"}, {"measurement": "Estimated Glomerular Filtration Rate, mean change from baseline", "setting": "12.5 mg QD, Week 3", "value": "−2.05", "unit": "mL/min/1.73 m^2"}, {"measurement": "Estimated Glomerular Filtration Rate, mean observed", "setting": "12.5 mg QD, Week 3", "value": 77.21, "unit": "mL/min/1.73 m^2"}, {"measurement": "Estimated Glomerular Filtration Rate, mean change from baseline", "setting": "12.5 mg QD, Week 4", "value": "−5.45", "unit": "mL/min/1.73 m^2"}, {"measurement": "Estimated Glomerular Filtration Rate, mean observed", "setting": "12.5 mg QD, Week 4", "value": 73.40, "unit": "mL/min/1.73 m^2"}, {"measurement": "Estimated Glomerular Filtration Rate, mean change from baseline", "setting": "12.5 mg QD, Week 5", "value": "−3.60", "unit": "mL/min/1.73 m^2"}, {"measurement": "Estimated Glomerular Filtration Rate, mean observed", "setting": "12.5 mg QD, Week 5", "value": 75.25, "unit": "mL/min/1.73 m^2"}, {"measurement": "Estimated Glomerular Filtration Rate, mean change from baseline", "setting": "12.5 mg QD, Week 6", "value": "−6.28", "unit": "mL/min/1.73 m^2"}, {"measurement": "Estimated Glomerular Filtration Rate, mean observed", "setting": "12.5 mg QD, Week 6", "value": 73.39, "unit": "mL/min/1.73 m^2"}, {"measurement": "Estimated Glomerular Filtration Rate, mean change from baseline", "setting": "12.5 mg QD, Week 7", "value": "−7.17", "unit": "mL/min/1.73 m^2"}, {"measurement": "Estimated Glomerular Filtration Rate, mean observed", "setting": "12.5 mg QD, Week 7", "value": 72.50, "unit": "mL/min/1.73 m^2"}, {"measurement": "Estimated Glomerular Filtration Rate, mean change from baseline", "setting": "12.5 mg QD, Week 8", "value": "−3.67", "unit": "mL/min/1.73 m^2"}, {"measurement": "Estimated Glomerular Filtration Rate, mean observed", "setting": "12.5 mg QD, Week 8", "value": 76.00, "unit": "mL/min/1.73 m^2"}, {"measurement": "Estimated Glomerular Filtration Rate, mean observed", "setting": "25 mg BID, BL", "value": 80.85, "unit": "mL/min/1.73 m^2"}, {"measurement": "Estimated Glomerular Filtration Rate, mean change from baseline", "setting": "25 mg BID, Week 1", "value": "−6.85", "unit": "mL/min/1.73 m^2"}, {"measurement": "Estimated Glomerular Filtration Rate, mean observed", "setting": "25 mg BID, Week 1", "value": 74.00, "unit": "mL/min/1.73 m^2"}, {"measurement": "Estimated Glomerular Filtration Rate, mean change from baseline", "setting": "25 mg BID, Week 2", "value": "−5.42", "unit": "mL/min/1.73 m^2"}, {"measurement": "Estimated Glomerular Filtration Rate, mean observed", "setting": "25 mg BID, Week 2", "value": 75.43, "unit": "mL/min/1.73 m^2"}, {"measurement": "Estimated Glomerular Filtration Rate, mean change from baseline", "setting": "25 mg BID, Week 3", "value": "−5.90", "unit": "mL/min/1.73 m^2"}, {"measurement": "Estimated Glomerular Filtration Rate, mean observed", "setting": "25 mg BID, Week 3", "value": 75.07, "unit": "mL/min/1.73 m^2"}, {"measurement": "Estimated Glomerular Filtration Rate, mean change from baseline", "setting": "25 mg BID, Week 4", "value": "−6.69", "unit": "mL/min/1.73 m^2"}, {"measurement": "Estimated Glomerular Filtration Rate, mean observed", "setting": "25 mg BID, Week 4", "value": 73.48, "unit": "mL/min/1.73 m^2"}, {"measurement": "Estimated Glomerular Filtration Rate, mean change from baseline", "setting": "25 mg BID, Week 5", "value": "−7.41", "unit": "mL/min/1.73 m^2"}, {"measurement": "Estimated Glomerular Filtration Rate, mean observed", "setting": "25 mg BID, Week 5", "value": 73.25, "unit": "mL/min/1.73 m^2"}, {"measurement": "Estimated Glomerular Filtration Rate, mean change from baseline", "setting": "25 mg BID, Week 6", "value": "−8.02", "unit": "mL/min/1.73 m^2"}, {"measurement": "Estimated Glomerular Filtration Rate, mean observed", "setting": "25 mg BID, Week 6", "value": 72.64, "unit": "mL/min/1.73 m^2"}, {"measurement": "Estimated Glomerular Filtration Rate, mean change from baseline", "setting": "25 mg BID, Week 7", "value": "−7.85", "unit": "mL/min/1.73 m^2"}, {"measurement": "Estimated Glomerular Filtration Rate, mean observed", "setting": "25 mg BID, Week 7", "value": 72.22, "unit": "mL/min/1.73 m^2"}, {"measurement": "Estimated Glomerular Filtration Rate, mean change from baseline", "setting": "25 mg BID, Week 8", "value": "−5.55", "unit": "mL/min/1.73 m^2"}, {"measurement": "Estimated Glomerular Filtration Rate, mean observed", "setting": "25 mg BID, Week 8", "value": 75.11, "unit": "mL/min/1.73 m^2"}, {"measurement": "Estimated Glomerular Filtration Rate, mean observed", "setting": "50 mg QD, BL", "value": 77.18, "unit": "mL/min/1.73 m^2"}, {"measurement": "Estimated Glomerular Filtration Rate, mean change from baseline", "setting": "50 mg QD, Week 1", "value": "−2.96", "unit": "mL/min/1.73 m^2"}, {"measurement": "Estimated Glomerular Filtration Rate, mean observed", "setting": "50 mg QD, Week 1", "value": 74.21, "unit": "mL/min/1.73 m^2"}, {"measurement": "Estimated Glomerular Filtration Rate, mean change from baseline", "setting": "50 mg QD, Week 2", "value": "−4.32", "unit": "mL/min/1.73 m^2"}, {"measurement": "Estimated Glomerular Filtration Rate, mean observed", "setting": "50 mg QD, Week 2", "value": 72.86, "unit": "mL/min/1.73 m^2"}, {"measurement": "Estimated Glomerular Filtration Rate, mean change from baseline", "setting": "50 mg QD, Week 3", "value": "−2.35", "unit": "mL/min/1.73 m^2"}, {"measurement": "Estimated Glomerular Filtration Rate, mean observed", "setting": "50 mg QD, Week 3", "value": 74.81, "unit": "mL/min/1.73 m^2"}, {"measurement": "Estimated Glomerular Filtration Rate, mean change from baseline", "setting": "50 mg QD, Week 4", "value": "−3.61", "unit": "mL/min/1.73 m^2"}, {"measurement": "Estimated Glomerular Filtration Rate, mean observed", "setting": "50 mg QD, Week 4", "value": 73.63, "unit": "mL/min/1.73 m^2"}, {"measurement": "Estimated Glomerular Filtration Rate, mean change from baseline", "setting": "50 mg QD, Week 5", "value": "−4.10", "unit": "mL/min/1.73 m^2"}, {"measurement": "Estimated Glomerular Filtration Rate, mean observed", "setting": "50 mg QD, Week 5", "value": 70.58, "unit": "mL/min/1.73 m^2"}, {"measurement": "Estimated Glomerular Filtration Rate, mean change from baseline", "setting": "50 mg QD, Week 6", "value": "−2.83", "unit": "mL/min/1.73 m^2"}, {"measurement": "Estimated Glomerular Filtration Rate, mean observed", "setting": "50 mg QD, Week 6", "value": 74.63, "unit": "mL/min/1.73 m^2"}, {"measurement": "Estimated Glomerular Filtration Rate, mean change from baseline", "setting": "50 mg QD, Week 7", "value": "−5.46", "unit": "mL/min/1.73 m^2"}, {"measurement": "Estimated Glomerular Filtration Rate, mean observed", "setting": "50 mg QD, Week 7", "value": 69.68, "unit": "mL/min/1.73 m^2"}]}
